Our source for the IC50 values is patent US8791267B2, “Biaryl PDE4 inhibitors for treating inflammatory, cardiovascular and CNS disorders” (Decode Genetics EHF, priority 2007, dated 2014).

Molecules are shown by their SMILES. Counter-ions that a name gives are not always drawn. Some results are limits rather than exact numbers.

The target of the first assay is PDE4 (Homo sapiens, UniProt Q08499). Nature of the assay: In-vitro assay for PDE4 enzymes, real-time enzyme-coupled spectrophotometric assay (Table 9).
PDE4, sequence (Q08499 whole entry): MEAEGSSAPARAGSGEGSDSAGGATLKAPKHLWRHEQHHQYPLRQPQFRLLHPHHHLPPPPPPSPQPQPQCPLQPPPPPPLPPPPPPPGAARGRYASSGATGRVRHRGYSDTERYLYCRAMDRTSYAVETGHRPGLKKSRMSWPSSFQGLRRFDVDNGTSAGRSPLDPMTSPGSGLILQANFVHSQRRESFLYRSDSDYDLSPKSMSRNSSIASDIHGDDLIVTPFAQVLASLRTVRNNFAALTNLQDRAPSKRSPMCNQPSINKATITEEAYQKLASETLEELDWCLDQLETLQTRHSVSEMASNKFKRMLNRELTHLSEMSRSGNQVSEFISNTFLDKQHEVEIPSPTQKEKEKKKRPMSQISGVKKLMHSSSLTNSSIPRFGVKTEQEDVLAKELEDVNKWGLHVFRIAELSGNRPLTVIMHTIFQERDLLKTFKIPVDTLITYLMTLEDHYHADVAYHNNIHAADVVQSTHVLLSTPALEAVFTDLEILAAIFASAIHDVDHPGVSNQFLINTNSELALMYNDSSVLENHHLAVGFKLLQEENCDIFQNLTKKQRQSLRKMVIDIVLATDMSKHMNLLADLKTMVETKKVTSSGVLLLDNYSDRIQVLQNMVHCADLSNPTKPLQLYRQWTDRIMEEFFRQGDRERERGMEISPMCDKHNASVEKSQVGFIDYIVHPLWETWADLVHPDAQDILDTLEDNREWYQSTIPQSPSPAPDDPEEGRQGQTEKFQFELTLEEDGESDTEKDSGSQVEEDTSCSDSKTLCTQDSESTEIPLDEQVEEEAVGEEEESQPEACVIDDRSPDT
Conditions: not given
The class given is biochemical.
As to `COc1ccc(Cc2ccc(CNC(=O)Oc3ccccc3)nc2)c(F)c1-c1cccc(Cl)c1` [P-520, [5-(3′-Chloro-2-fluoro-6-methoxy-biphenyl-3-ylmethyl)-pyridin-2-ylmethyl]-carbamic acid phenyl ester], the IC50 was under 5 µM.

The same assay, now with this note: human PDE4D; activity class, Table 9; read-out: hPDE4D.
`COc1ccc(Cc2ccc(F)cc2)cc1-c1cccc(Cl)n1` [P-391, 2-Chloro-6-[5-(4-fluoro-benzyl)-2-methoxy-phenyl]-pyridine]: the IC50 is under 5 µM.
For the molecule `COc1ccc(Cc2ccc(F)cc2)cc1-n1ccc(C(F)(F)F)n1` [P-396, 1-[5-(4-Fluoro-benzyl)-2-methoxy-phenyl]-3-trifluoromethyl-1H-pyrazole], the IC50 is under 5 µM.
Same read-out and setting: the result for `COc1ccc(C=Cc2ccc(F)cc2)c(F)c1-c1cccc(Cl)c1` [P-418] reads 5 to 20 µM; that for `COc1ccc(Cc2ccc(N3CCNCC3)nc2)c(F)c1-c1cccc(Cl)c1` [P-423, 1-[5-(3′-chloro-2-fluoro-6-methoxy-biphenyl-3-ylmethyl)-pyridin-2-yl]-piperazine], 5 to 20 µM; that for `CCOC(=O)N1CCN(c2ccc(Cc3ccc(OC)c(-c4cccc(Cl)c4)c3F)cn2)CC1` [P-431], under 5 µM.
On the same count and under the same terms, the result for `COc1ccc(C(=O)c2ccc(NC(N)=O)cc2)c(F)c1-c1cccc(Cl)c1` [P-434, [4-(3′-chloro-2-fluoro-6-methoxy-biphenyl-3-carbonyl)-phenyl]-urea] reads under 5 µM; that for `COc1ccc(Cn2cc(-c3ccc(NC(N)=O)cc3)cn2)c(F)c1-c1cccc(Cl)c1` [P-435], under 5 µM.
As to `CCNC(=O)Nc1ccc([S+]([O-])c2ccc(OC)c(-c3cccc(Cl)c3)c2)cc1` (stereo not drawn) [P-449, 1-[4-(3′-Chloro-6-methoxy-biphenyl-3-sulfinyl)-phenyl]-3-ethyl urea], the IC50 was under 5 µM.
The same measure, in the same setting: the same measure for `CCNC(=O)Nc1ccc(S(=O)(=O)c2ccc(OC)c(-c3cccc(Cl)c3)c2)cc1` [P-450, 1-[4-(3′-Chloro-6-methoxy-biphenyl-3-sulfonyl)-phenyl]-3-ethyl-urea]: under 5 µM; for `COc1ccc(Cc2ccc(Nc3nccs3)cc2)cc1-c1cccc(Cl)c1` [P-454, [4-(3′-Chloro-6-methoxy-biphenyl-3-ylmethyl)-phenyl]-thiazol-2-yl-amine]: under 5 µM.
Same read-out and setting: the same measure for `COc1ccc(Cc2ccc(Nc3nccs3)cc2)c(F)c1-c1cccc(Cl)c1` [P-466]: under 5 µM.
Same read-out and setting: the same measure for `COc1ccc(Cc2ccc(F)cc2)cc1-c1cccnc1` [P-474, 3-[5-(4-Fluoro-benzyl)-2-methoxy-phenyl]-pyridine]: under 5 µM.
Take `CNc1ccc(Cc2ccc(OC)c(-c3cccc(Cl)c3)c2)cc1` [P-476, [4-(3′-Chloro-6-methoxy-biphenyl-3-ylmethyl)-phenyl]-methyl-amine hydrochloric acid]: the IC50 was under 5 µM.
Same read-out and setting: the same measure for `COc1ccc(Cc2cccc(NC(C)=O)c2)cc1-c1cccc(Cl)c1` [P-477, N-[3-(3′-Chloro-6-methoxy-biphenyl-3-ylmethyl)-phenyl]-acetamide]: under 5 µM; for `COc1ccc(Cn2cnc3ccccc32)cc1-c1cccc([N+](=O)[O-])c1` [P-483, 1-(6-Methoxy-3′-nitro-biphenyl-3-ylmethyl)-1H-benzoimidazole]: under 5 µM; for `COc1ccc(Cn2cncn2)cc1-c1ccc2[nH]ccc2c1` [P-486, 5-(2-Methoxy-5-[1,2,4]triazol-1-ylmethyl-phenyl)-1H-indole]: 20 to 40 µM.
With `COc1ccc(CO)nc1-c1cccc([N+](=O)[O-])c1` [P-491, [5-methoxy-6-(3-nitro-phenyl)-pyridin-2-yl]-methanol], the IC50 is 20 to 40 µM.
`COc1ccc(CN2CCC[C@@H]2CO)cc1-c1cccc([N+](=O)[O-])c1` [P-493, [(R)-1-(6-Methoxy-3′-nitro-biphenyl-3-ylmethyl)-pyrrolidin-2-yl]-methanol]: the IC50 lay within 20 to 40 µM.
The same measure, in the same setting: the result for `COc1ccc(Cn2cncn2)cc1-c1cccc(S(C)(=O)=O)c1` [P-495, 1-(3′-Methanesulfonyl-6-methoxy-biphenyl-3-ylmethyl)-1H-[1,2,4]triazole] reads 20 to 40 µM.
Same read-out and setting: the result for `O=CNCc1ccccc1Cc1ccc(O)c(-c2cccc([N+](=O)[O-])c2)c1` [P-501, N-[2-(6-Hydroxy-3′-nitro-biphenyl-3-ylmethyl)-benzyl]-formamide] reads 5 to 20 µM.
On the same count and under the same terms, the result for `CCNC(=O)N1CCN(c2ccc(Cc3ccc(OC)c(-c4cccc(Cl)c4)c3F)cn2)CC1` [P-514, 4-[5-(3′-chloro-2-fluoro-6-methoxy-biphenyl-3-ylmethyl)-pyridin-2-yl]-piperazine-1-carboxylic acid ethylamide hydrochloride] reads under 5 µM; that for `COc1ccc(Cn2cc(-c3ccncc3)cn2)c(F)c1-c1cccc(Cl)c1` [P-528, 4-[1-(3′-Chloro-2-fluoro-6-methoxy-biphenyl-3-ylmethyl)-1H-pyrazol-4-yl]-pyridine], under 5 µM; that for `[2H]C(O)(c1ccc([N+](=O)[O-])cc1)c1ccc(OC)c(-c2cccc(Cl)c2)c1F` (stereo not drawn) [P-537, deutero-(3′-chloro-2-fluoro-6-methoxy-biphenyl-3-yl)-(4-nitro-phenyl)-methanol], under 5 µM.
For the molecule `[2H]C(O)(c1ccc(N)cc1)c1ccc(OC)c(-c2cccc(Cl)c2)c1F` (stereo not drawn) [P-538, deutero-(4-amino-phenyl)-(3′-chloro-2-fluoro-6-methoxy-biphenyl-3-yl)-methanol], the IC50 was under 5 µM.
For the molecule `NC(=O)Nc1ccc(Cc2ccc(OCC3CCCO3)c(-c3cccc(Cl)c3)c2)cc1` (stereo not drawn) [P-543, {4-[3′-Chloro-6-(tetrahydro-furan-2-ylmethoxy)-biphenyl-3-ylmethyl]-phenyl}-urea], the IC50 was under 5 µM.
As to `COc1ccc(Cn2cc(-c3ccncn3)cn2)c(F)c1-c1cccc(Cl)c1` [P-546, 4-[1-(3′-Chloro-2-fluoro-6-methoxy-biphenyl-3-ylmethyl)-1H-pyrazol-4-yl]-pyrimidine hydrochloride salt], the IC50 is under 5 µM.
Still for that read-out and setting: the same measure for `CN(C)CCOc1ccc(Cc2ccc(NC(N)=O)cc2)cc1-c1cccc(Cl)c1` [P-548, {4-[3′-Chloro-6-(2-dimethylamino-ethoxy)-biphenyl-3-ylmethyl]-phenyl}-urea]: 5 to 20 µM; for `COc1ccc(Cn2nc(C(F)(F)F)cc2-c2cccnc2)c(F)c1-c1cccc(Cl)c1` [P-552, 3-[2-(3′-Chloro-2-fluoro-6-methoxy-biphenyl-3-ylmethyl)-5-trifluoromethyl-2H-pyrazol-3-yl]-pyridine hydrochloride salt]: under 5 µM; for `NC(=O)Nc1ccc(Cc2ccc(OC3CNC3)c(-c3cccc(Cl)c3)c2)cc1` [P-554, {4-[6-(Azetidin-3-yloxy)-3′-chloro-biphenyl-3-ylmethyl]-phenyl}-urea]: 5 to 20 µM.
The same measure, in the same setting: the same measure for `CN1CC[C@H](Oc2ccc(Cc3ccc(NC(N)=O)cc3)cc2-c2cccc(Cl)c2)C1` [P-556]: 5 to 20 µM; for `NC(=O)COc1ccc(Cc2ccc(NC(N)=O)cc2)cc1-c1cccc(Cl)c1` [P-557, 2-[3′-Chloro-5-(4-ureido-benzyl)-biphenyl-2-yloxy]-acetamide]: under 5 µM.
`COc1ccc(C(=O)c2ccc(N)cc2)cc1-c1cccc(Cl)c1` [P-558, (4-amino-phenyl)-(3′-chloro-6-methoxy-biphenyl-3-yl)-methanone]: the IC50 is under 5 µM.
